In the supplement of paper PMC10307832:

Key:
Assay in all cases: relative viability (nuclei count vs DMSO), 5 days (fraction); higher = more cells survive
[1] = compound: CN(C/C=C/C1=CC=C(C=C1)Cl)CC2=CC=CC=C2N(CCO)S(=O)(=O)C3=CC=C(C=C3)OC [KN-93]
How it was run: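 For viability, nuclei in each treated well were divided by nuclei in vehicle wells and the median across plates was taken. Lung cancer cell lines in 1536-well plates were pinned with five library-drug doses (not always all listed) spaced by √10, cultured 5 days without medium change, and imaged at 4× after Hoechst staining, with plates passing only at control CV below 25% and at least one doubling.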

[2] = compound: CN(C/C=C/C1=CC=C(C=C1)Cl)CC2=CC=CC=C2N(CCO)S(=O)(=O)C3=CC=C(C=C3)OC [KN-93] + CC1(C)CCC(c2ccc(Cl)cc2)=C(CN2CCN(c3ccc(C(=O)NS(=O)(=O)c4ccc(N[C@H](CCN5CCOCC5)CSc5ccccc5)c(S(=O)(=O)C(F)(F)F)c4)cc3)CC2)C1 [Navitoclax] (partner 0.5 µM)
How it was run: (§1)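 Lung cancer cell lines were seeded in 1536-well plates and dosed by pin tool the next day, with either a single drug or a fixed anchor-drug dose combined with five library-drug doses (not always all listed) spaced in √10 steps. Five days later, one step fixed the cells and stained their nuclei (final 0.05% Triton X-100, 1% formaldehyde, 1 ug/ml Hoechst), and nuclei were counted on 4× images. Relative viability is the nuclei count in treated wells divided by the count in vehicle wells, and each value is the median of duplicate plates.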

[3] = compound: CN(C/C=C/C1=CC=C(C=C1)Cl)CC2=CC=CC=C2N(CCO)S(=O)(=O)C3=CC=C(C=C3)OC [KN-93] + COc1cccc2cc(-c3nc([C@H]4CC[C@H](C(=O)O)CC4)n4ncnc(N)c34)[nH]c12 [OSI-027] (partner 0.5 µM)
How it was run: as §1

[4] = compound: CN(C/C=C/C1=CC=C(C=C1)Cl)CC2=CC=CC=C2N(CCO)S(=O)(=O)C3=CC=C(C=C3)OC [KN-93] + CS(=O)(=O)N1CCN(Cc2cc3nc(-c4cccc5[nH]ncc45)nc(N4CCOCC4)c3s2)CC1 [Pictilisib] (partner 1 µM)
How it was run: as §1

[5] = compound: CN(C/C=C/C1=CC=C(C=C1)Cl)CC2=CC=CC=C2N(CCO)S(=O)(=O)C3=CC=C(C=C3)OC [KN-93] + Nc1ncn([C@H]2C[C@H](O)[C@@H](CO)O2)c(=O)n1 [Decitabine] (partner 2 µM)
How it was run: as §1

Cell Line | relative viability ([1]; 0.08 µM) | relative viability ([1]; 0.253 µM) | relative viability ([1]; 2.53 µM) | relative viability ([1]; 8 µM) | relative viability ([2]; first compound 0.08 µM) | relative viability ([2]; first compound 0.253 µM) | relative viability ([2]; first compound 2.53 µM) | relative viability ([2]; first compound 8 µM) | relative viability ([3]; first compound 0.08 µM) | relative viability ([3]; first compound 0.253 µM) | relative viability ([3]; first compound 2.53 µM) | relative viability ([3]; first compound 8 µM) | relative viability ([4]; first compound 0.08 µM) | relative viability ([4]; first compound 0.253 µM) | relative viability ([4]; first compound 2.53 µM) | relative viability ([4]; first compound 8 µM) | relative viability ([5]; first compound 0.08 µM) | relative viability ([5]; first compound 0.253 µM) | relative viability ([5]; first compound 2.53 µM) | relative viability ([5]; first compound 8 µM)
LXF-289 | 0.942 | 1.07 | 1.02 | 0.828 | 0.97 | 1.08 | 0.918 | 0.631 | 0.875 | 0.967 | 0.873 | 0.634 | 0.724 | 0.891 | 0.825 | 0.559 | 0.391 | 0.413 | 0.416 | 0.388
NCI-H23 | 0.997 | 1.18 | 1.02 | 0.56 | 0.721 | 0.988 | 0.933 | 0.816 | 0.566 | 0.544 | 0.662 | 0.344 | 0.414 | 0.559 | 0.58 | 0.446 | 0.849 | 0.306 | 0.296 | 0.288
NCI-H322M | 0.872 | 0.941 | 0.959 | 0.768 | 1.19 | 1.09 | 1.2 | 1.11 | 0.535 | 0.577 | 0.539 | 0.411 | 0.496 | 0.423 | 0.531 | 0.51 | 0.733 | 0.725 | 0.69 | 0.699
NCI-H441 | 0.709 | 1.14 | 1.3 | 0.731 |  | 0.573 | 0.747 | 0.238 | 0.603 | 0.672 | 0.623 | 0.479 | 0.356 | 0.53 | 0.591 | 0.3 |  | 0.203 | 0.261 | 0.197
NCI-H460 | 0.821 | 1.06 | 1.03 | 0.652 | 0.39 | 1.29 |  | 0.63 | 0.863 | 0.825 | 0.603 | 0.223 | 0.301 | 0.329 | 0.465 | 0.117 | 0.282 | 0.409 | 0.579 | 0.46
NCI-H520 | 0.91 | 1.05 | 1.14 | 0.815 |  | 1.13 | 1.23 | 0.878 | 0.287 | 0.289 | 0.279 | 0.205 |  | 0.32 | 0.297 | 0.26 | 0.596 | 0.599 | 0.538 | 0.458
NCI-H596 | 0.913 | 1.15 | 0.941 | 0.5 | 0.996 | 0.891 | 0.966 | 0.575 | 0.769 | 0.726 | 0.755 | 0.252 | 0.419 | 0.361 | 0.381 | 0.368 | 1.03 | 1.19 | 1.08 | 0.824
NCI-H647 | 0.985 | 1.25 | 1.01 | 0.813 | 0.976 | 1.41 | 1.39 | 0.715 | 0.695 | 0.643 | 0.856 | 0.533 | 0.493 | 0.327 | 0.462 | 0.336 | 0.373 | 0.487 | 0.444 | 0.409
NCI-H727 | 1.03 | 0.833 | 1.02 | 0.649 | 0.464 | 0.4 | 0.285 | 0.17 | 0.644 | 0.512 | 0.486 | 0.337 | 0.434 | 0.264 | 0.379 | 0.231 | 0.795 |  | 0.816 | 0.827
NCI-H838 | 0.935 | 0.883 | 1.02 | 0.908 | 1.04 | 1.06 | 1.31 | 0.946 | 0.443 | 0.328 | 0.445 | 0.41 | 0.556 | 0.378 | 0.391 | 0.362 | 0.436 | 0.455 | 0.487 | 0.427
NCI-H1355 | 0.834 | 0.891 | 1.06 | 0.724 | 0.874 | 0.722 | 0.916 | 0.74 | 0.405 | 0.295 | 0.41 | 0.246 | 0.391 | 0.352 | 0.389 | 0.295 | 0.367 | 0.298 | 0.317 | 0.315
NCI-H1395 | 0.965 | 0.969 | 0.914 | 0.571 | 1.11 | 1.22 | 1.34 | 0.566 | 0.702 | 0.666 | 0.707 | 0.469 | 0.654 | 0.682 | 1.02 | 0.477 | 0.713 | 0.739 | 0.745 | 0.615
NCI-H1437 | 1.03 | 1.09 | 0.895 | 0.584 | 0.92 | 1.23 | 1.07 | 0.476 | 0.885 | 0.984 | 0.852 | 0.651 | 0.416 | 0.379 | 0.394 | 0.301 | 0.519 | 0.768 | 0.533 | 0.405
NCI-H1650 | 0.796 | 0.808 | 0.941 | 0.569 | 1.24 | 1.2 | 1.44 | 0.951 | 0.574 | 0.596 | 0.496 | 0.465 | 0.527 | 0.537 | 0.582 | 0.239 | 0.349 | 0.38 | 0.427 | 0.44
NCI-H1651 | 0.932 | 1.07 | 1.09 | 0.865 | 0.997 | 1.08 | 1.09 | 0.482 | 0.588 | 0.73 | 0.749 | 0.423 | 0.45 | 0.658 | 0.532 | 0.477 | 0.594 | 0.597 | 0.623 | 0.534
